Data as given in patent US20250296938A1, “Compounds that Interact with the Ras Superfamily for the Treatment of Cancers, Inflammatory Diseases, Rasopathies, and Fibrotic Disease” (SHY Therapeutics, LLC, priority 2018, published 2025).
Where two headings read alike, the source gives them in different places.

Legend:
Assay in all cases: Ras GTP binding domain inhibition assay (Cy3-GTP/Cy5-GTP competition)
KRas G12C mutant = system: KRas G12C mutant; parameters: species or system human; settings: 20 μM
Outline: (§1)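 Ni-plate immobilised His-Ras, overnight 4 °C; cpd 20 μM (or dilution series for IC50), 1% DMSO, 3 h RT; optional His-Sos […] last hour; Cy3- or Cy5-GTP 100 nM, 45 min RT; 3× wash; bound fluorescence read.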

KRas wild type = system: KRas wild type; parameters: species or system human; settings: 20 μM; for KRas wild type: % inh.: without SOS; for KRas wild type % inh.: without SOS (Table 7A)
Outline: as §1

KRas Q61H mutant = system: KRas Q61H mutant; parameters: species or system human; settings: 20 μM
Outline: as §1

KRas G12D mutant = target: T1, KRas G12D mutant (Homo sapiens, UniProt P01116, G12D); settings: 20 μM
T1 construct: fused on or other part: His tag, used for capture on nickel-coated plates
Outline: as §1

[1] = with SOS, read-out: KRas G-12D mutant + SOS: % inh.
[2] = without SOS, read-out: KRas G12D mutant: % inh.
[3] = with SOS (Table 7A), read-out: KRas G12D mutant + SOS: % inh.
[4] = without SOS (Table 7A), read-out: KRas G12D mutant: % inh.

Compound	KRas G12C mutant + SOS: % inh. (KRas G12C mutant; with SOS)	KRas G12C mutant: % inh. (KRas G12C mutant; without SOS)	KRas wild type + SOS: % inh. (KRas wild type; with SOS)	KRas wild type: % inh. (KRas wild type)	KRas Q61H mutant + SOS: % inh. (KRas Q61H mutant; with SOS)	KRas Q61H mutant: % inh. (KRas Q61H mutant; without SOS)	inhibition at 20 µM (KRas G12D mutant; [1]) [%]	inhibition at 20 µM (KRas G12D mutant; [2]) [%]	KRas G12C mutant + SOS: % inh. (KRas G12C mutant; with SOS (Table 7A))	KRas G12C mutant: % inh. (KRas G12C mutant; without SOS (Table 7A))	KRas wild type + SOS: % inh. (KRas wild type; with SOS (Table 7A))	KRas wild type % inh. (KRas wild type)	KRas Q61H mutant + SOS: % inh. (KRas Q61H mutant; with SOS (Table 7A))	KRas Q61H mutant: % inh. (KRas Q61H mutant; without SOS (Table 7A))	inhibition at 20 µM (KRas G12D mutant; [3]) [%]	inhibition at 20 µM (KRas G12D mutant; [4]) [%]
COC1CCN(c2nc(-c3nccn3C)nc3sc(-c4ccn(C)n4)c(-c4ccccc4)c23)C1 (stereo not shown) [drawing 863]	B (26-50% inhibition)	A (1-25% inhibition)	B (26-50% inhibition)	A (1-25% inhibition)	C (51-75% inhibition)	B (26-50% inhibition)	1 to 25	1 to 25	–	–	–	–	–	–	–	–
COCC(C)Nc1nc(-c2nccn2C)nc2sc(-c3ccn(C)n3)c(-c3ccccc3)c12 (stereo not shown) [drawing 864]	C (51-75% inhibition)	0 (0% inhibition)	C (51-75% inhibition)	0 (0% inhibition)	C (51-75% inhibition)	0 (0% inhibition)	26 to 50	1 to 25	–	–	–	–	–	–	–	–
COCCCN(C)c1nc(-c2nccn2C)nc2sc(-c3ccn(C)n3)c(-c3ccccc3)c12 [drawing 865]	B (26-50% inhibition)	A (1-25% inhibition)	B (26-50% inhibition)	A (1-25% inhibition)	B (26-50% inhibition)	A (1-25% inhibition)	26 to 50	51 to 75	–	–	–	–	–	–	–	–
COCCCNc1nc(-c2nccn2C)nc2sc(-c3ccn(C)n3)c(-c3ccccc3)c12 [drawing 866]	B (26-50% inhibition)	A (1-25% inhibition)	C (51-75% inhibition)	C (51-75% inhibition)	B (26-50% inhibition)	B (26-50% inhibition)	26 to 50	1 to 25	–	–	–	–	–	–	–	–
COc1cccc(-c2sc3nc(-c4nccn4C)nc(N4CCC(OC)C4)c3c2-c2cscn2)c1 (stereo not shown) [drawing 867]	D (76-100% inhibition)	0 (0% inhibition)	D (76-100% inhibition)	A (1-25% inhibition)	D (76-100% inhibition)	A (1-25% inhibition)	51 to 75	1 to 25	–	–	–	–	–	–	–	–
COc1ccc(-c2c(-c3ccn(C)n3)sc3nc(-c4nccn4C)nc(N4CCC(OC)C4)c23)cc1 (stereo not shown) [drawing 868]	A (1-25% inhibition)	0 (0% inhibition)	A (1-25% inhibition)	0 (0% inhibition)	B (26-50% inhibition)	A (1-25% inhibition)	1 to 25	0	–	–	–	–	–	–	–	–
COCC(C)Nc1nc(-c2nccn2C)nc2sc(-c3ccn(C)n3)c(-c3ccc(OC)cc3)c12 (stereo not shown) [drawing 869]	A (1-25% inhibition)	0 (0% inhibition)	A (1-25% inhibition)	A (1-25% inhibition)	A (1-25% inhibition)	A (1-25% inhibition)	1 to 25	0	–	–	–	–	–	–	–	–
COCCCNc1nc(-c2nccn2C)nc2sc(-c3ccn(C)n3)c(-c3ccc(OC)cc3)c12 [drawing 870]	A (1-25% inhibition)	0 (0% inhibition)	0 (0% inhibition)	A (1-25% inhibition)	A (1-25% inhibition)	A (1-25% inhibition)	1 to 25	0	–	–	–	–	–	–	–	–
COCCNc1nc(-c2nccn2C)nc2sc(-c3cc(OC)ccc3Cl)c(-c3ccccc3)c12 [drawing 871]	A (1-25% inhibition)	0 (0% inhibition)	A (1-25% inhibition)	B (26-50% inhibition)	A (1-25% inhibition)	C (51-75% inhibition)	1 to 25	26 to 50	–	–	–	–	–	–	–	–
COCCNc1nc(-c2nccn2C)nc2sc(-c3cccc(OC)c3Cl)c(-c3ccccc3)c12 [drawing 872]	D (76-100% inhibition)	C (51-75% inhibition)	D (76-100% inhibition)	B (26-50% inhibition)	D (76-100% inhibition)	B (26-50% inhibition)	76 to 100	1 to 25	–	–	–	–	–	–	–	–
COCCNc1nc(-c2cn(C)cn2)nc2sc(-c3ccccc3Cl)c(-c3ccc(OC)cc3)c12 [drawing 873]	D (76-100% inhibition)	C (51-75% inhibition)	D (76-100% inhibition)	A (1-25% inhibition)	D (76-100% inhibition)	B (26-50% inhibition)	76 to 100	26 to 50	–	–	–	–	–	–	–	–
COCCNc1nc(-c2nccn2C)nc2sc(-c3cccc(OC)c3Cl)c(-c3ccc(OC)cc3)c12 [drawing 874]	D (76-100% inhibition)	B (26-50% inhibition)	D (76-100% inhibition)	B (26-50% inhibition)	D (76-100% inhibition)	A (1-25% inhibition)	51 to 75	1 to 25	–	–	–	–	–	–	–	–
COCCNc1nc(-c2nccn2C)nc2sc(-c3cccc(OC)c3)c(-c3ccc(OC)cc3)c12 [drawing 875]	D (76-100% inhibition)	C (51-75% inhibition)	D (76-100% inhibition)	B (26-50% inhibition)	D (76-100% inhibition)	B (26-50% inhibition)	76 to 100	51 to 75	–	–	–	–	–	–	–	–
COCCNc1nc(-c2nccn2C)nc2sc(-c3ccccc3Cl)c(-c3ccc(OC)cc3)c12 [drawing 876]	D (76-100% inhibition)	B (26-50% inhibition)	D (76-100% inhibition)	B (26-50% inhibition)	D (76-100% inhibition)	B (26-50% inhibition)	76 to 100	26 to 50	–	–	–	–	–	–	–	–
COCCNc1nc(-c2nccn2C)nc2sc(-c3cc(OC)ccc3Cl)c(-c3ccc(OC)cc3)c12 [drawing 877]	C (51-75% inhibition)	A (1-25% inhibition)	D (76-100% inhibition)	A (1-25% inhibition)	D (76-100% inhibition)	A (1-25% inhibition)	26 to 50	1 to 25	–	–	–	–	–	–	–	–
COc1cccc(-c2csc3c(O)nc(-c4nccn4C)nc23)c1Cl [drawing 878]	A (1-25% inhibition)	A (1-25% inhibition)	A (1-25% inhibition)	A (1-25% inhibition)	A (1-25% inhibition)	A (1-25% inhibition)	1 to 25	1 to 25	–	–	–	–	–	–	–	–
COc1c(O)nc(-c2ccccn2)nc1Oc1ccc(C(=O)N(C)C)cc1 [drawing 879]	–	–	–	–	–	–	–	–	A (1-25% inhibition)	B (26-50% inhibition)	A (1-25% inhibition)	B (26-50% inhibition)	B (26-50% inhibition)	B (26-50% inhibition)	26 to 50	51 to 75
COc1c(O)nc(-c2ccccn2)nc1Nc1ccccc1 [drawing 880]	–	–	–	–	–	–	–	–	B (26-50% inhibition)	C (51-75% inhibition)	B (26-50% inhibition)	C (51-75% inhibition)	C (51-75% inhibition)	C (51-75% inhibition)	26 to 50	26 to 50
CCn1cc(Nc2nc(-c3ccccn3)nc(O)c2OC)cn1 [drawing 881]	–	–	–	–	–	–	–	–	B (26-50% inhibition)	C (51-75% inhibition)	B (26-50% inhibition)	C (51-75% inhibition)	B (26-50% inhibition)	A (1-25% inhibition)	26 to 50	26 to 50
CCOc1cccc(Nc2nc(-c3ccccn3)nc(O)c2OC)c1 [drawing 882]	–	–	–	–	–	–	–	–	C (51-75% inhibition)	C (51-75% inhibition)	B (26-50% inhibition)	C (51-75% inhibition)	C (51-75% inhibition)	C (51-75% inhibition)	26 to 50	51 to 75
